Patent publication US9382213B2, “Heterocyclic and cyclic analogs of propargyl-linked inhibitors of dihydrofolate reductase” (PROMILIAD BIOPHARMA INC., priority 2014, dated 2016)
Converted amounts (≈) assume the structure as drawn. Like-named read-outs stand apart in the source and are kept apart here.

Experiments:
[1] = target: T1, CgDHFR (Candida glabrata, UniProt Q6FPH0); assay: DHFR enzyme inhibition (NADPH consumption at 340 nm), C. glabrata DHFR; assay type: biochemical; details: 100 μM NADPH, 100 μM dihydrofolate, pH 7.0, 25° C., triplicate
T1 construct: made in house
T1 sequence (Q6FPH0 entry or part of it): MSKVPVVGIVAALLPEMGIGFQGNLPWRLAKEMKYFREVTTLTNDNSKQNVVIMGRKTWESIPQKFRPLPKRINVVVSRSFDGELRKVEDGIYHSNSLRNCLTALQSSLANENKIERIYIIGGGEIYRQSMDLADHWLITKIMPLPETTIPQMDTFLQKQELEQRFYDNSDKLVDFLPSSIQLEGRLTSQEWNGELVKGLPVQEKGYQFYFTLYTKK
Method: (§1) Med. Chem., 17:4866-4872 (2009)). Crystallization of the protein with ligand also followed previously described procedures (Paulsen et al 2011). Data were collected at Brookhaven National Laboratory, beamline X4A (CaDHFR) or X4C (CgDHFR). Molecular replacement was used to determine all three structures. Initial phase information was obtained using Phaser; electron density and model building used Coot. Refinement was carried out with Refmac 5 as part of the CCP4 package. Procheck was used to assess model quality.
(§2) Enzyme inhibition was determined by monitoring the consumption of NADPH at 340 nm for one minute. Reactions were performed with 20 mM TES pH 7.0, 50 mM KCl, 10 mM 2-mercaptoethanol, 0.5 mM EDTA and 1 mg/mL bovine serum albumin. Saturating concentrations of cofactor (100 μM NADPH) and substrate (100 μM dihydrofolate) were used with a limiting concentration of enzyme. All assays were conducted in triplicate at 25° C.

[2] = Kinetic solubility; assay type: physicochemical; details: water, 0.2% DMSO, room temperature 30 min, HPLC
Method: Compounds were initially dissolved as […] dimethyl sulfoxide (DMSO) solutions and diluted in filtered water in the presence or absence of 200 μg/ml methylcellulose (METHOCEL A4M; Dow Corning, Midland, Mich.). Final concentration of DMSO of all samples is 0.2%. All samples were incubated at room temperature for 30 min and centrifuged for 10 min at 15,000 rpm. Supernatant of the samples were analyzed by reversed phase HPLC. The mobile phase consisted of 50% acetonitrile (ACN) and 50% potassium phosphate buffer (50 mM, pH 7.0), using an isocratic flow rate of 1.5 ml/min. Solubility was determined as the maximal concentration for which absorption is linearly related to the log of the concentration.

[3] = target: T2, hDHFR (Homo sapiens, UniProt P00374); assay: DHFR enzyme inhibition (NADPH consumption at 340 nm), human DHFR; assay type: biochemical
T2 sequence (P00374 1-187): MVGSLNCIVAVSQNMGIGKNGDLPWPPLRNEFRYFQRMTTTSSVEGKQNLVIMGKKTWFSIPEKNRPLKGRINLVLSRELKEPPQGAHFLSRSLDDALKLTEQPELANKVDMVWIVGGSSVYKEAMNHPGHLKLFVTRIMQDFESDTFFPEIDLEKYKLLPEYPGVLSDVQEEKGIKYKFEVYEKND
Method: as §2

[4] = test system: Human MCF-10; assay: Mammalian cell cytotoxicity; assay type: cell-based
[5] = test system: C. albicans (strain SC5314); assay: Antifungal activity (MIC), Alamar Blue cell viability; assay type: cell-based, Candida albicans; details: strain SC5314, GSB media, Alamar Blue after 24 hour incubation; for MIC: Candida albicans, SC5314, 24 h
Method: (§3) Stock cultures of C. albicans (strain SC5314) or C. glabrata (strain NCCLS84), thawed from storage in 50% glycerol at −80° C., were streaked on YM agar plates and grown at 37° C. for 48 hours. Isolated colonies from the plate were suspended in 100 mL of glucose-salt-biotin (GSB) media containing ammonia chloride (2 g), potassium phosphate (0.35 g), magnesium sulfate (0.24 g), sodium citrate (0.3 g), piperazine-N,N′-bis[2-ethanesulfonic acid] (3.4 g), biotin (40 mg) and glucose (20 g) in 1 L of water at a final pH of 7.1. […] An aliquot was removed from the shake flask culture, diluted to between 1×10^5 and 1×10^6 cells/mL in GSB media, and added to 96 well test plates (100 μL per well) containing test compounds dispensed in DMSO (1 μL). Amphotericin B and itraconazole were used as controls. C. albicans cell viability was determined by the addition of Alamar Blue (10 μL) to each well after a 24 hour incubation period. […] The XTT Cell Proliferation kit (ATCC) was used as an alternative. Tetrazolium dye, XTT, along with an electron activating reagent (50 μL) was added to 96 well plates and incubated for 24 hours at 37° C. Cell viability is indicated by a color change from a dark orange to a bright orange color that can be detected at […].

[6] = test system: C. glabrata (strain NCCLS84); assay: Antifungal activity (MIC), XTT cell viability; assay type: cell-based, Candida glabrata; details: strain NCCLS84, GSB media
Method: as §3

[7] = target: T3, CaDHFR (Candida albicans, UniProt P22906); assay: DHFR enzyme inhibition (NADPH consumption at 340 nm), C. albicans DHFR; assay type: biochemical
T3 construct: made in house
T3 sequence (P22906 1-192): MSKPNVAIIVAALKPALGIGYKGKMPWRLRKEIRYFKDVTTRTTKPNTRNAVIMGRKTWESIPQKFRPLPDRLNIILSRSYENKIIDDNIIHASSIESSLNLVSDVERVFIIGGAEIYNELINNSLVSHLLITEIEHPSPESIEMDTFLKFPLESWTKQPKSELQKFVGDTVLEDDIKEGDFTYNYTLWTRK
Method: as §1, §2

[8] = 100 μM NADPH, 100 μM dihydrofolate, pH 7.0, 25° C., triplicate
[9] = MCF10, Human MCF-10 cells, read-out: IC50 Human MCF-10

CCc1nc(N)nc(N)c1C#CC(C)c1cnc(-c2ccccc2)nc1 (centres unmarked) [Compound 48, 6-Ethyl-5-[3-(2-phenyl-pyrimidin-5-yl)-but-1-ynyl]-pyrimidine-2,4-diamine]
IC50 [1]: 22 nM
solubility [2]: 60 µg/mL (≈ 174 µM)
IC50 [3, 8]: 180 nM
IC50 [4, 9]: 216000 nM
MIC [5]: 0.2 to 0.78 µg/mL (≈ 0.581 to 2.26 µM)
MIC C. albicans [5]: 0.19 µg/mL (≈ 0.552 µM)
melting point: 161.3 to 162.8 °C
MIC C. glabrata [6]: 0.78 µg/mL (≈ 2.26 µM)
IC50 [7, 8]: 37 nM

CCc1nc(N)nc(N)c1C#CC(C)c1ccc(-c2ccccc2)nc1 (centres unmarked) [Compound 46, 6-Ethyl-5-[3-(6-phenyl-pyridin-3-yl)-but-1-ynyl]-pyrimidine-2,4-diamine]
IC50 [1]: 23 nM
solubility [2]: 20 µg/mL (≈ 58.2 µM)
IC50 [3, 8]: 688 nM
MIC [5]: 0.2 to 0.78 µg/mL (≈ 0.582 to 2.27 µM)
MIC C. albicans [5]: 0.39 µg/mL (≈ 1.14 µM)
MIC C. glabrata [6]: 0.78 µg/mL (≈ 2.27 µM)

CCc1nc(N)nc(N)c1C#CC(C)c1ccc(-c2ccc(OC(N)=O)cc2)cc1OC (centres unmarked) [Compound 33, Carbamic acid 4′-[3-(2,4-diamino-6-ethyl-pyrimidin-5-yl)-1-methyl-prop-2-ynyl]-3′-methoxy-biphenyl-4-yl ester]
IC50 [3, 8]: 170 nM
IC50 [7, 8]: 18 nM

CCc1nc(N)nc(N)c1C#CC(C)c1ccc(-c2ccc(C#N)cc2)cc1OC (centres unmarked) [Compound 32, 4′-[3-(2,4-Diamino-6-ethyl-pyrimidin-5-yl)-1-methyl-prop-2-ynyl]-3′-methoxy-biphenyl-4-carbonitrile]
IC50 [3, 8]: 477 nM
IC50 [4, 9]: 50000 nM
melting point: 130.9 to 133.1 °C
IC50 [7, 8]: 50 nM

CCc1nc(N)nc(N)c1C#CC(C)c1ccc(-c2ccc(O)cc2)cc1OC (centres unmarked) [Compound 30, 4′-[3-(2,4-Diamino-6-ethyl-pyrimidin-5-yl)-1-methyl-prop-2-ynyl]-3′-methoxy-biphenyl-4-ol]
IC50 [3, 8]: 136 nM
IC50 ([4]; Homo sapiens, MCF10, read-out: IC50 Human MCF-10): 148000 nM
melting point: 188.1 to 189.3 °C
IC50 [7, 8]: 39 nM

CCc1nc(N)nc(N)c1C#CC(C)c1ccc(-c2ccc(N(C)C)cc2)cc1OC (centres unmarked) [Compound 35, 5-[3-(4′-Dimethylamino-3-methoxy-biphenyl-4-yl)-but-1-ynyl]-6-ethyl-pyrimidine-2,4-diamine]
IC50 ([3]; pH 7): 147 nM
melting point: 135.2 to 136.1 °C
IC50 ([7]; pH 7): 64 nM

CCc1nc(N)nc(N)c1C#CC(C)c1ccc(-c2ccc(C(=O)OC)cc2)cc1OC (centres unmarked) [Compound 34, 4′-[3-(2,4-Diamino-6-ethyl-pyrimidin-5-yl)-1-methyl-prop-2-ynyl]-3′-methoxy-biphenyl-4-carboxylic acid methyl ester]
IC50 [3, 8]: 49 nM
IC50 [4, 9]: 96000 nM
melting point: 168.2 to 170.8 °C
IC50 [7, 8]: 46 nM

CCc1nc(N)nc(N)c1C#CC(C)c1ccc(-c2ccc(C)cc2)nc1 (centres unmarked) [Compound 47, 6-Ethyl-5-[3-(6-p-tolyl-pyridin-3-yl)-but-1-ynyl]-pyrimidine-2,4-diamine]
IC50 [1]: 27 nM
solubility [2]: 15 µg/mL (≈ 42 µM)
IC50 [3, 8]: 625 nM
MIC [5]: 0.2 to 0.78 µg/mL (≈ 0.56 to 2.18 µM)
MIC C. albicans [5]: 0.39 µg/mL (≈ 1.09 µM)
melting point: 144 to 146.1 °C
MIC ([6]; Nakaseomyces glabratus): 0.2 to 0.78 µg/mL (≈ 0.56 to 2.18 µM)
MIC C. glabrata [6]: 0.2 µg/mL (≈ 0.56 µM)
IC50 ([7]; pH 7): 49 nM
